# Measurements from patent publication US20140249084A1, “PTH-CONTAINING THERAPEUTIC/PROPHYLACTIC AGENT FOR OSTEOPOROSIS, CHARACTERIZED IN THAT PTH IS ADMINISTERED ONCE A WEEK IN A UNIT DOSE OF 100 TO 200 UNITS” (ASAHI KASEI PHARMA CORPORATION, priority 2009, published 2014).
# How the values were obtained:
# Format in all cases: in vivo, human
# [1] = tested on: patients diagnosed with primary osteoporosis; assay: Lumbar spine bone mineral density by DXA, Working Example 1 (5 or 100 units once a week); conditions: low-risk patients, only one patient
# Procedure: (§1) Both the 5 and 100 unit groups were administered two tablets of a calcium agent (containing 500 mg of precipitated calcium carbonate [200 mg as calcium] per tablet) once a day.
# (§2) The osteoporosis patients were classified as condition shown in Table 1 based on the bone fracture risk factors present, as in Non-patent Reference 13, and compared. High-risk patients were defined as having all three factors involving age, prevalent vertebral fractures, and bone density or bone atrophy; low-risk patients were defined as other than the above.
# [2] = tested on: patients diagnosed with primary osteoporosis; assay: Fractures at sites other than the vertebrae (roentgen films), Working Example 1; conditions: fractures of sites other than the vertebrae
# Procedure: as §1, §2
# [3] = tested on: high-risk patients diagnosed with primary osteoporosis; assay: New vertebral fractures (incl. multiple), Working Example 2 (200 units once a week vs placebo, 72 weeks); conditions: for New vertebral fractures: Incidence (%) / New vertebral fractures: No. of subjects: 72 weeks; for No. with fractures: new vertebral fractures
# From the text: The above patients also took two tablets of a calcium agent once a day after dinner. […] The preparation contained precipitated calcium carbonate, magnesium carbonate, cholecalciferol (vitamin D3), and the like as components and is marketed under the trade name New Calcichew (trademark) D3″ (sold by: Daiichi Sankyo Health Care, manufactured and sold by: Nitto Pharmaceutical Industries, Ltd.).
# The numbers of patients administered the test drug and control were 290 (also sometimes referred to as the test drug group in the working example) and 288 (also sometimes referred to as the control group in the working example), respectively. The total number administered was 578. However, the number in each group sometimes differs depending on the type of test and is expressed, for example, by (n=**) or the number evaluated, or the like.
# The incidence of bone fractures was checked by frontal and lateral x-rays of the fourth thoracic to the fourth lumbar spine taken at the start and every 24 weeks thereafter.
# Here, “multiple vertebral fractures” was defined as two or more new vertebral fractures. When the incidence of multiple vertebral fractures (number of cases) was compared in the test drug group (n=261) and control group (n=281) after 72 weeks of administration, it was 2.1% (6 cases) in the control group and 0.8% (2 cases) in the test drug group.
# [4] = tested on: high-risk patients diagnosed with primary osteoporosis; assay: Femur (neck, proximal) bone density by DXA, Working Example 2; conditions: Neck of femur; 24 W; history of Alfacalcidol; 200 units once a week
# Procedure: For the bone density of the femur, only the left side of the proximal part of the femur, rotated 20°, was measured at the start and every 24 weeks thereafter using dual-energy x-ray absorptiometry (DXA).
# [5] = No. of fractures: Five or more, 200 units once a week
# [6] = No. of fractures: Four, 200 units once a week
# [7] = No. of fractures: One, 200 units once a week
# [8] = No. of fractures: Three, 200 units once a week
# [9] = No. of fractures: Two, 200 units once a week
# [10] = history of Alfacalcidol, 200 units once a week
# [11] = history of Calcitriol, 200 units once a week
# [12] = history of Calcium L-aspartate, 200 units once a week
# [13] = history of Calcium lactate, 200 units once a week
# [14] = history of Elcatonin, 200 units once a week
# [15] = history of Menatetrenone, 200 units once a week
# [16] = history of Raloxifene hydrochloride, 200 units once a week
# [17] = patients taking glucocorticoid, 200 units once a week
# [18] = two or more new vertebral fractures, after 72 weeks, 200 units once a week
substance,measurement,setting,value
teriparatide acetate,Lumbar spine bone mineral density (% change),[1]; After 26 W,3.2%
same,Lumbar spine bone mineral density (% change),[1]; After 52 W,6.1%
same,Lumbar spine bone mineral density (% change),[1]; After 78 W,12.0%
same,Lumbar spine bone mineral density (% change),[1]; Final check,12.0%
same,No. with fractures (persons),"[2]; high-risk patients, 5 units once a week",6 persons
same,No. with fractures (persons),"[2]; high-risk patients, 100 units once a week",1 persons
same,No. with fractures (persons),"[2]; low-risk patients, 5 units once a week",1 persons
same,No. with fractures (persons),"[2]; low-risk patients, 100 units once a week",0 persons
same,Occurrence of new vertebral fractures after 48 weeks,"[3]; 48 to 72 weeks division, 200 units once a week",no new vertebral fractures occurred after 48 weeks
same,"New vertebral fractures, No. with fractures","[3]; FAS, No. evaluated 261",7
same,Difference between PTH200 group and P group after 72 W (%),"[3]; FAS, incidence of new vertebral fractures after 72 W",11.4%
same,New vertebral fractures: Incidence (%),[3]; [5],0.0%
same,New vertebral fractures: No. of subjects,[3]; [5],0
same,New vertebral fractures: Incidence (%),[3]; [6],0.0%
same,New vertebral fractures: No. of subjects,[3]; [6],0
same,New vertebral fractures: Incidence (%),[3]; [7],1.9%
same,New vertebral fractures: No. of subjects,[3]; [7],5
same,New vertebral fractures: Incidence (%),[3]; [8],0.0%
same,New vertebral fractures: No. of subjects,[3]; [8],0
same,New vertebral fractures: Incidence (%),[3]; [9],0.8%
same,New vertebral fractures: No. of subjects,[3]; [9],2
same,"New vertebral fractures, No. with fractures","[3]; Time after administration >24 W-≦48 W, No. evaluated 219",2
same,"New vertebral fractures, No. with fractures","[3]; Time after administration >48 W-≦72 W, No. evaluated 206",0
same,"New vertebral fractures, No. with fractures","[3]; Time after administration ≦24 W, No. evaluated 261",6
same,Incidence of new vertebral fractures (%),"[3]; creatinine clearance at start Abnormal (<80), After 24 W, 200 units once a week",2.8%
same,Incidence of new vertebral fractures (%),"[3]; creatinine clearance at start Abnormal (<80), After 48 W, 200 units once a week",3.4%
same,Incidence of new vertebral fractures (%),"[3]; creatinine clearance at start Abnormal (<80), After 72 W, 200 units once a week",3.4%
same,Incidence of new vertebral fractures (%),"[3]; creatinine clearance at start Normal (≧80), After 24 W, 200 units once a week",0.0%
same,Incidence of new vertebral fractures (%),"[3]; creatinine clearance at start Normal (≧80), After 48 W, 200 units once a week",0.0%
same,Incidence of new vertebral fractures (%),"[3]; creatinine clearance at start Normal (≧80), After 72 W, 200 units once a week",0.0%
same,New vertebral fractures: No,[3]; [10],62
same,New vertebral fractures: Yes,[3]; [10],1
same,New vertebral fractures: No,[3]; [11],7
same,New vertebral fractures: Yes,[3]; [11],1
same,New vertebral fractures: No,[3]; [12],28
same,New vertebral fractures: Yes,[3]; [12],1
same,New vertebral fractures: No,[3]; [13],8
same,New vertebral fractures: Yes,[3]; [13],0
same,New vertebral fractures: No,[3]; [14],35
same,New vertebral fractures: Yes,[3]; [14],2
same,New vertebral fractures: No,[3]; [15],6
same,New vertebral fractures: Yes,[3]; [15],0
same,New vertebral fractures: No,[3]; [16],20
same,New vertebral fractures: Yes,[3]; [16],0
same,No. with fractures,"[3]; Complication (diabetes): No, 200 units once a week",7
same,No. with fractures,"[3]; Complication (diabetes): Yes, 200 units once a week",0
same,No. with fractures,"[3]; Complication (hyperlipidemia): No, 200 units once a week",4
same,No. with fractures,"[3]; Complication (hyperlipidemia): Yes, 200 units once a week",3
same,No. with fractures,"[3]; Complication (hypertension): No, 200 units once a week",3
same,No. with fractures,"[3]; Complication (hypertension): Yes, 200 units once a week",4
same,No. with fractures,"[3]; Prior osteoporosis treatment (no), 200 units once a week",4
same,No. with fractures,"[3]; Prior osteoporosis treatment (yes), 200 units once a week",3
same,No. with fractures,"[3]; creatinine clearance at start Abnormal (<80), 200 units once a week",6
same,No. with fractures,"[3]; creatinine clearance at start Normal (≧80), 200 units once a week",0
same,"Existence of new vertebral fractures, Fracture: no",[3]; [17],29
same,"Existence of new vertebral fractures, Fracture: yes",[3]; [17],0
same,Incidence of multiple vertebral fractures,[3]; [18],0.8%
same,Multiple vertebral fractures (number of cases),[3]; [18],2 cases
same,Percentage change in bone density (%),[4],1.64%
